We go through one compound from paper PMC10730845, “Endoxifen downregulates AKT phosphorylation through protein kinase C beta 1 inhibition in ERα+ breast cancer” (NPJ Breast Cancer, 2023).

Test [1] deals with PKCβ1 and AKT^Ser473 phosphorylation in HEK293F cells. Put plainly: Immunoblot of PKCβ1 and pAKT^Ser473, HEK293F. In kind it is cell-based, human. To be noted: 5 µM, 2 h pretreatment, 100 nM insulin 1 h. The text has this: To determine whether the observed effects of ENDX on PKCβ1 degradation and AKT^Ser473 phosphorylation inhibition are dependent on the presence of ERα, we additionally evaluated ENDX effects on PKCβ1 degradation and AKT^Ser473 phosphorylation in the ER negative (ER-) MDAMB231 breast cancer cells and nonbreast HEK293F cells, a human embryonic kidney cell line, both of which express higher amounts of PKCβ1 compared to ERα+ MCF7AC1 cells (Supplementary Fig. 5a). […] To determine whether the addition of ERα to the MDAMB231 cell line could facilitate ENDX effects on PKCβ1, we performed doxycycline (dox)-induced ERα protein expression in MDAMB231 cells and evaluated ENDX effects on PKCβ1 using the above-mentioned experimental conditions. […] Additionally, we pretreated MDAMB231 and HEK293F cells with or without 5 µM ENDX for 1 h followed by 0 or 200 nM PMA treatment for 20 min and evaluated effects on PKCβ1.
Supplementary Figure 5. Effects of ENDX on PKCβ1, phospho -PKCB1Ser661 and phospho-AKTSer473 expression levels in ERα- breast cancer cells. a, Basal expression of PKCβ1 and ERα in the indicated cell lines. […]

The next test has as its target PKC gamma (PKCg) (Homo sapiens, UniProt P05129). The test is described as follows: In vitro kinase assay, PKC gamma. In kind it is biochemical. The note with it: 10 μM ATP. The text has this: (§1) Supplementary Table 4. In vitro kinase assay showing the IC 50 concentration of ENDX and
(§2) of the 12 PKC family members.
(§3) (1 picture or pasted object on this page, not shown here)

In another test the test system is MDAMB231 cells. Put plainly: IncuCyte Annexin V apoptosis assay, MDAMB231. The note with it: CSS medium, 48 h, 0–10 µM tested; no apoptosis below the highest concentration. In kind it is cell-based, human. The method, then: Supplementary Figure 8. ENDX neither induces apoptosis nor inhibit growth of ER - breast cancer cells. a, MDAMB231 cells grown in CSS medium were co -treated with vehicle control or the indicated ENDX concentrations, IncuCyte Annexin V green and NucLight red reagents in CSS medium for 48 hours. The apoptosis graphs are presented as the green object count […]
software. Cells were plated at a density of 2000 cells per well. Data represents the mean of six

The test system of the next test is T47D-LTED cells. Put plainly: IncuCyte Annexin V apoptosis assay, T47D-LTED. In kind it is cell-based, human. To be noted: CSS medium, 48 h; 5 µM. On the procedure:
MCF7AC1 and T47D-LTED cells were plated at a density of 2000 cells per well in CSS medium for 24 h. Cells were then co-treated for 48 h with vehicle or drug, IncuCyte Annexin V green reagent (#4642, 1:300), an early-stage apoptosis marker, and IncuCyte NucLight rapid red reagent (#4717, 1:500), a dye that stains all cell nuclei red, in CSS medium. MCF7AC1^caAKT cells were plated at a cell density of 2000 cells per well in CSS medium in the absence or presence of cumate for 48 h and then co-treated with vehicle or drug, Annexin V green and NucLight rapid red reagents in the absence or presence of cumate for an additional 48 h in CSS medium.
Supplementary Figure 6. […] Cell viability is assessed by the crystal violet assay. b, MCF7AC1 cells were co-treated with vehicle control or 0.01, 0.1 and 5 µM MK-2206 and IncuCyte Annexin V green and NucLight rapid red reagents in CSS medi um for 48 hours. […]
Cells were plated at a density of 2000 cells per well. c, MCF7AC1 cells were treated with vehicle control or 0.01, 0.1 and 5 µM MK-2206 in CSS medium for 24 hours. […] Cell viability is assessed by the crystal violet assay. f, Parental T47D and T47D-LTED cells were processed for protein lysates. […] Percentage of cells undergoing apoptosis was calculated as mentioned in b. i, T47D-LTED cells were treated with vehicle control or 0.01, 0.1 and 5 µM MK -2206 in CSS medium for 24 hours . […]

Another test concerns the target PKC eta (PKCh) (Homo sapiens, UniProt P24723). The test is described as follows: In vitro kinase assay, PKC eta. In kind it is biochemical. The note with it: 10 μM ATP.
From the text: as §1, §2, §3

Test [2] concerns MCF7AC1 aromatase inhibitor-sensitive and -resistant models. More on the design: method as in PMID 32430040. To be noted: cited from earlier work.
On the set-up of test [3]: method as in PMID 24853369, PMID 28977607. The note with it: low (10 mg/kg) and high (50 mg/kg) doses; cited from earlier work.

PKC eta (PKCh), sequence (P24723 whole entry): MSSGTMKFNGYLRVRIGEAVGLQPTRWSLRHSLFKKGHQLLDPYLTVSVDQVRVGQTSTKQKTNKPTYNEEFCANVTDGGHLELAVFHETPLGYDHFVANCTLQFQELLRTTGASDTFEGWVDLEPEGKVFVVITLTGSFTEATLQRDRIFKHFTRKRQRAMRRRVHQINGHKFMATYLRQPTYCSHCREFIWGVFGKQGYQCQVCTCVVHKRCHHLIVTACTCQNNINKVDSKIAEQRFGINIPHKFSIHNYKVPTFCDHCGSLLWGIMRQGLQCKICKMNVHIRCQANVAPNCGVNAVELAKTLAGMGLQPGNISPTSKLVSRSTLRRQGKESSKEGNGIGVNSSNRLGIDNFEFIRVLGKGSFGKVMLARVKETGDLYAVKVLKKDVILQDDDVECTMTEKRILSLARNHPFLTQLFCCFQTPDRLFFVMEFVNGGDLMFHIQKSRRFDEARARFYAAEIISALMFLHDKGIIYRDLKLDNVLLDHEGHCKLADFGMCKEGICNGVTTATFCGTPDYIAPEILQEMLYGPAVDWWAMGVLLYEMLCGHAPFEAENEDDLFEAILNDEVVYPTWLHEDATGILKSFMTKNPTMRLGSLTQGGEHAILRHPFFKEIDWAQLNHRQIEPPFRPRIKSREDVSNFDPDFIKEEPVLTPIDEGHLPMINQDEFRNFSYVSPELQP

For the compound `CC/C(=C(\c1ccc(O)cc1)c1ccc(OCCNC)cc1)c1ccccc1` [ENDX, Z-endoxifen], in test [1], the “Effect on PKCβ1 protein levels” value is “did not impact PKCβ1 protein levels” and the “Effect on insulin induced AKT^Ser473 phosphorylation” value was “did not inhibit this phosphorylation”. Further, on PKC gamma (PKCg), inhibition was half-maximal at 49.7 µM (IC50). Besides, the “Concentration at which apoptosis was induced” value in the test on MDAMB231 cells is 10 µM. In addition, the “Effect on apoptosis (annexin V binding, PARP1 cleavage)” value in the test with T47D-LTED cells was “induced apoptosis”. At PKC eta (PKCh), this compound came in with an IC50 greater than 50 µM. Also, in test [2], the “In vivo antitumor activity” value is “superior in vivo antitumor activity compared to TAM and letrozole”. In addition, in test [3], the “Effects on the bone” value was “increasing cancellous and cortical bone mass, reducing bone turnover, and protecting against bone loss”.
